Assay: SMIP encapsulation efficiency (UPLC of pellet and supernatant)
Type: physicochemical
Details: RG 502H 2% w/v nanoparticles, theoretical SMIP loading 2% w/w of PLG
Method: Nanoparticles with a theoretical SMIP loading level of 2% w/w of PLG were prepared for the SMIP encapsulation study. Both water (pH 5.5-6) and Tris EDTA buffer (pH 7-8) were used for the aqueous phases. […] Since, a basic SMIP is being employed here, Tris EDTA buffer was used for the aqueous phase, which maintained the pH of the suspension between 7 and 8.
The encapsulation efficiency was calculated as a ratio of mass of SMIP in the nanoparticles to the mass of SMIP used in the formulation. More particularly, the nanoparticle suspension was aliquoted (1 ml) into 2 vials and centrifuged at 16000 RPM for 30 minutes. The amount of SMIP in the supernatant was determined using an ultra performance liquid chromatography (Waters Acquity UPLC, Milford, Mass., USA) assay. The pellet was washed three times and the amount of SMIP in the pellet was determined after hydrolyzing the pellet with sodium hydroxide, followed by neutralization with hydrochloric acid. Encapsulation efficiency was calculated as ratio of the SMIP in the pellet to the total SMIP content of the suspension. Mass balance was achieved by hydrolyzing 1 ml of the suspension and determining the total SMIP content in 1 ml of the suspension.

- encapsulation efficiency (Tris EDTA buffer (pH 7-8) as aqueous phase): greater than 90%
- encapsulation efficiency (water (pH 5.5-6) as aqueous phase): 40-50%
Structure (SMILES): CCCN(C)c1nc2c(N)nc3ccccc3c2n1CC(C)(C)O [SMIP]

— patent publication US9393295B2, “Nanoparticles for use in pharmaceutical compositions” (Novartis AG, priority 2008, dated 2016)
